As usually defined, the EC50 is the concentration needed to bring the measured effect to its halfway point. What is called DC50 is the concentration giving 50% degradation. Higher therefore signals degradation only at high concentration.

This passage reports IC50, EC50 and DC50 results from patent publication US20230391772A1, “METHODS AND COMPOSITIONS FOR TARGETED PROTEIN DEGRADATION” (Ranok Therapeutics (Hangzhou) Co. Ltd., priority 2020, published 2023).

In one assay the target is T1, HSP90a protein (Homo sapiens, UniProt P07900).
T1 construct: purchased BPS Bioscience 50298
Kind of assay: HSP90α-binding fluorescent polarization (FP) assay, BODIPY-labeled RNK04010 probe. The note with it: FP competition with RNK04010 (BODIPY-labeled), 5 nM, 300 min at 25° C. A digest of the protocol: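 Polarization signal was read after equilibration at 25° C, for 120 min with FITC-geldanamycin or 300 min with the BODIPY-tagged RNK04010 probe, each at 5 nM final. Compounds spanned 20 μM down to 5.2 nM in 2.5-fold dilutions against the HSP90a N-terminal domain.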

Assay [1] relates to MIA PaCa-2 human pancreatic carcinoma. Kind of assay: MIA PaCa-2 CCK-8 proliferation assay. The format is cell-based. The note with it: MIA PaCa-2 cells. The essentials: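 KRAS(G12C) lines were used: MIA PaCa-2 with 2 copies, and NCI-H358 and NCI-H23 with 1 copy each. Cells were treated with 3-fold compound dilutions from 20 μM to 1.02 nM, and proliferation was read by CCK-8 absorbance. % inhibition was calculated against DMSO-treated cells after subtracting the cell-free medium blank.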

Assay [2] has as its target T2, KRAS(G12C) (Homo sapiens, UniProt P01116, G12C). Nature of the assay: KRAS(G12C)/SOS1 homogeneous time-resolved fluorescence (HTRF) assay. The note with it: absence of GTP, 4° C. for 3 hr, read-out: KRAS (G12C) binding. Set-up: purchased Cisbio 63ADK000CB16PEG. A digest of the protocol: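 HTRF kit measuring compound-induced block of KRAS(G12C)-SOS1 interaction without GTP. Compounds tested as 3-fold serial dilutions down to 1.02 nM, incubated with reaction components 3 h at 4 °C in sealed plates before fluorescence read.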
In general terms: Time-resolved FRET reads energy transfer from a long-lived donor to a nearby acceptor.

Assay [3] deals with T2, KRAS(G12C). Kind of assay: KRAS(G12C) Western blot protein degradation assay in LU65A cells. It counts as cell-based. Also noted: LU65A human lung cancer cell line, which expresses KRAS(G12C); host or cells: LU65A. The note with it: 6 hr. A digest of the protocol: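 Cells treated with compound at various concentrations at 37 °C for 48 hr (MIA PaCa-2) or 6 hr (LU65A), then lysed in RIPA. Protein-normalized lysates immunoblotted for KRAS with β-actin, fluorescence quantified; DC50 is the concentration giving 50% of maximal KRAS degradation.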
(In general: In western blotting, separated proteins are transferred to a membrane and probed.)

On to `C=CC(=O)N1CCN(c2nc(OCCN3CCN(C(=O)C4CCN(Cc5ccc(-n6c(O)nnc6-c6cc(C(C)C)c(O)cc6O)cc5)CC4)CC3)nc3c2CCN(c2cccc4cccc(Cl)c24)C3)C[C@@H]1CC#N` [Compound 192, (S)-2-(1-acryloyl-4-(7-(8-chloronaphthalen-1-yl)-2-(2-(4-(1-(4-(3-(2,4-dihydroxy-5-isopropylphenyl)-5-hydroxy-4H-1,2,4-triazol-4-yl)benzyl)piperidine-4-carbonyl)piperazin-1-yl)ethoxy)-5,6,7,8-tetrahydropyrido[3,4-d]pyrimidin-4-yl)piperazin-2-yl)acetonitrile, trifluoroacetic acid], for which the IC50 on HSP90a protein and at KRAS(G12C) [2] was less than 100 nM each time. This compound also gave an EC50 in assay [1] (Homo sapiens, MIA PaCa-2, 72 h) of 100 to 1000 nM. This compound also yielded a DC50 on KRAS(G12C) [3] of 100 to 1000 nM.

On to `C=CC(=O)N1CCN(c2nc(OCCN3CCN(C(=O)C4CCN(Cc5ccc(-n6c(C(N)=O)nnc6-c6cc(C(C)C)c(O)cc6O)cc5)CC4)CC3)nc3c2CCN(c2cccc4cccc(Cl)c24)C3)C[C@@H]1CC#N` [Compound 193, (S)-4-(4-((4-(4-(2-((4-(4-acryloyl-3-(cyanomethyl)piperazin-1-yl)-7-(8-chloronaphthalen-1-yl)-5,6,7,8-tetrahydropyrido[3,4-d]pyrimidin-2-yl)oxy)ethyl)piperazine-1-carbonyl)piperidin-1-yl)methyl)phenyl)-5-(2,4-dihydroxy-5-isopropylphenyl)-4H-1,2,4-triazole-3-carboxamide], for which the IC50 on HSP90a protein and on KRAS(G12C) [2] was less than 100 nM each time. The EC50 in assay [1] (Homo sapiens, MIA PaCa-2, 72 h) was 100 to 1000 nM. The compound also yielded a DC50 at KRAS(G12C) [3] of 100 to 1000 nM.

Turning to `C=CC(=O)N1CCN(c2nc(OCC3(CN4CCN(Cc5ccc(-n6c(C(=O)NCC)nnc6-c6cc(C(C)C)c(O)cc6O)cc5)CC4)CC3)nc3c2CCN(c2cccc4cccc(Cl)c24)C3)C[C@@H]1CC#N` [Compound 285, 4-{4-[(4-{[1-({[7-(8-chloronaphthalen-1-yl)-4-[(3S)-3-(cyanomethyl)-4-(prop-2-enoyl)piperazin-1-yl]-5H,6H,8H-pyrido[3,4-d]pyrimidin-2-yl]oxy}methyl)cyclopropyl]methyl}piperazin-1-yl)methyl]phenyl}-5-(2,4-dihydroxy-5-isopropylphenyl)-N-ethyl-1,2,4-triazole-3-carboxamide], the EC50 in assay [1] (Homo sapiens, MIA PaCa-2, 72 h) is less than 100 nM. The IC50 on KRAS(G12C) [2] is less than 100 nM. On KRAS(G12C) [3], this compound showed a DC50 of 100 to 1000 nM.

The compound `C=C(F)C(=O)N1CCN(c2nc(OC[C@@H]3CC[C@H](CN4CCN(Cc5ccc(-n6c(O)nnc6-c6cc(C(C)C)c(O)cc6O)cc5)CC4)N3C)nc3c2CCN(c2cccc4ccccc24)C3)C[C@@H]1CC#N` [Compound 286, 2-[(2S)-4-(2-{[(2S,5R)-5-{[4-({4-[3-(2,4-dihydroxy-5-isopropylphenyl)-5-hydroxy-1,2,4-triazol-4-yl]phenyl}methyl)piperazin-1-yl]methyl}-1-methylpyrrolidin-2-yl]methoxy}-7-(naphthalen-1-yl)-5H,6H,8H-pyrido[3,4-d]pyrimidin-4-yl)-1-(2-fluoroprop-2-enoyl)piperazin-2-yl]acetonitrile] yielded an EC50 in assay [1] (Homo sapiens, MIA PaCa-2, 72 h) of less than 100 nM. Besides, on KRAS(G12C) [2], the IC50 is 100 to 1000 nM. Besides, the DC50 at KRAS(G12C) [3] was more than 1000 nM.

Regarding `C=C(F)C(=O)N1CCN(c2nc(OC[C@@H]3CC[C@H](CN4CCN(Cc5ccc(-n6c(C(=O)NCC)nnc6-c6cc(C(C)C)c(O)cc6O)cc5)CC4)N3C)nc3c2CCN(c2cccc4ccccc24)C3)C[C@@H]1CC#N` [Compound 287, 4-{4-[(4-{[(2R,5S)-5-[({4-[(3S)-3-(cyanomethyl)-4-(2-fluoroprop-2-enoyl)piperazin-1-yl]-7-(naphthalen-1-yl)-5H,6H,8H-pyrido[3,4-d]pyrimidin-2-yl}oxy)methyl]-1-methylpyrrolidin-2-yl]methyl}piperazin-1-yl)methyl]phenyl}-5-(2,4-dihydroxy-5-isopropylphenyl)-N-ethyl-1,2,4-triazole-3-carboxamide], the EC50 in assay [1] (Homo sapiens, MIA PaCa-2, 72 h) was less than 100 nM. Also, the IC50 at KRAS(G12C) [2] lay within 100 to 1000 nM. The compound also returned a 50% degradation concentration (DC50) on KRAS(G12C) [3] of more than 1000 nM.

Consider `C=CC(=O)N1CCN(c2nc(OC[C@@H]3CC[C@H](CN4CCN(Cc5ccc(-n6c(C(=O)NCC)nnc6-c6cc(C(C)C)c(O)cc6O)cc5)CC4)N3C)nc3c2CCN(c2cccc4ccccc24)C3)C[C@@H]1CC#N` [Compound 288, 4-{4-[(4-{[(2R,5S)-5-[({4-[(3S)-3-(cyanomethyl)-4-(prop-2-enoyl)piperazin-1-yl]-7-(naphthalen-1-yl)-5H,6H,8H-pyrido[3,4-d]pyrimidin-2-yl}oxy)methyl]-1-methylpyrrolidin-2-yl]methyl}piperazin-1-yl)methyl]phenyl}-5-(2,4-dihydroxy-5-isopropylphenyl)-N-ethyl-1,2,4-triazole-3-carboxamide], for which the EC50 in assay [1] (Homo sapiens, MIA PaCa-2, 72 h) is less than 100 nM. Further, at KRAS(G12C) [2], the IC50 is less than 100 nM. Further, the DC50 on KRAS(G12C) [3] is more than 1000 nM.

In assay [1] (Homo sapiens, MIA PaCa-2, 72 h), `C=CC(=O)N1CCN(c2nc(OC[C@@H]3CC[C@H](CN4CCN(Cc5ccc(-n6c(C(=O)NCC)nnc6-c6cc(C(C)C)c(O)cc6O)cc5)CC4)N3C)nc3c2CCN(c2cccc4cccc(C)c24)C3)C[C@@H]1CC#N` [Compound 289, 4-{4-[(4-{[(2R,5S)-5-[({4-[(3S)-3-(cyanomethyl)-4-(prop-2-enoyl)piperazin-1-yl]-7-(8-methylnaphthalen-1-yl)-5H,6H,8H-pyrido[3,4-d]pyrimidin-2-yl}oxy)methyl]-1-methylpyrrolidin-2-yl]methyl}piperazin-1-yl)methyl]phenyl}-5-(2,4-dihydroxy-5-isopropylphenyl)-N-ethyl-1,2,4-triazole-3-carboxamide] had an EC50 of less than 100 nM. Moreover, the IC50 at KRAS(G12C) [2] was less than 100 nM. For the same compound, the DC50 on KRAS(G12C) [3] was more than 1000 nM.

Consider `C=CC(=O)N1CCN(c2nc(OC[C@@H]3C[C@H](N4CCN(CC5CCN(Cc6ccc7c(c6)CN(C(=O)c6cc(C(C)C)c(O)cc6O)C7)CC5)CC4)CN3C)nc3c2CCN(c2cccc4cccc(Cl)c24)C3)C[C@@H]1CC#N` [Compound 290, 2-[(2S)-4-[7-(8-chloronaphthalen-1-yl)-2-{[(2S,4S)-4-{4-[(1-{[2-(2,4-dihydroxy-5-isopropylbenzoyl)-1,3-dihydroisoindol-5-yl]methyl}piperidin-4-yl)methyl]piperazin-1-yl}-1-methylpyrrolidin-2-yl]methoxy}-5H,6H,8H-pyrido[3,4-d]pyrimidin-4-yl]-1-(prop-2-enoyl)piperazin-2-yl]acetonitrile], for which the EC50 in assay [1] (Homo sapiens, MIA PaCa-2, 72 h) is less than 100 nM. The IC50 on KRAS(G12C) [2] was less than 100 nM. The compound further registered a DC50 at KRAS(G12C) [3] of more than 1000 nM.

In turn, “(S)-4-(4-((4-(1-(2-((4-(4-acryloyl-3-(cyanomethyl)piperazin-1-yl)-7-(8-chloronaphthalen-1-yl)-5,6,7,8-tetrahydropyrido[3,4-d]pyrimidin-2-yl)oxy)ethyl)piperidine-4-carbonyl)piperazin-1-yl)methyl)phenyl)-5-(2,4-dihydroxy-5-methylphenyl)-N-(2,2,2-trifluoroethyl)-4H-1,2,4-triazole-3-carboxamide [Compound 257]” had an EC50 in assay [1] (72 hr) of 100 to 1000 nM. For the same compound, the IC50 at KRAS(G12C) [2] was less than 100 nM. The compound also yielded a DC50 on KRAS(G12C) [3] of 100 to 1000 nM.
